Experimental data reported in publication PMC12155840 (Molecules, 2025).
One block for each compound: values may come before it.

Key:
[1] = biological target: T1, human A1 adenosine receptor (hA1R) (Homo sapiens, UniProt P30542); assay: cAMP inhibition assay, allosteric mode with adenosine as orthosteric agonist, CHO-K1-hA1R cells; operational allosteric ternary complex model; assay type: cell-based; design: host or cells: CHO-K1; settings: for Allosteric modulation of adenosine-induced cAMP inhibition (shift of concentration-response curve): test compound at 20 µM; for Logαβ (binding and activation cooperativity) / αβ / τB / Kb / Kd / LogτB (operational efficacy as allosteric agonist): orthosteric agonist adenosine; for αβ / τB: antilogarithm; for Kb: antilogarithm of logKB; for Kd: operational model fit, read-out: logKB (converted)
T1 sequence (P30542 1-326): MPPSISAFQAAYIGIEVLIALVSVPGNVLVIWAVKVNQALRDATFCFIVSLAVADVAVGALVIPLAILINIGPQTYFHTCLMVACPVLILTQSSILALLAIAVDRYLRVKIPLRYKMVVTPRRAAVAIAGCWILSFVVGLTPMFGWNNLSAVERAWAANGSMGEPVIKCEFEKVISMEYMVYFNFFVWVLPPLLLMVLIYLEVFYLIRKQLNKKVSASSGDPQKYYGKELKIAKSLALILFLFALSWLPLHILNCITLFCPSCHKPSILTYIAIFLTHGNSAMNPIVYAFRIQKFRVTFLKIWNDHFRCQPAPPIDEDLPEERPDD

[2] = system: ECV304 human cell line; design: method as in PMID 18704879; settings: ECV304 in vitro BBB model; cited from earlier work
[3] = biological target: T1, human A1 adenosine receptor (hA1R); assay: cAMP inhibition assay, direct agonist mode, in CHO-K1-hA1R cells (Cisbio cAMP Gi kit, forskolin co-stimulation); settings: 0.01 to 50 µM
[4] = biological target: T2, human A1 receptor (Homo sapiens, UniProt P30542); assay: cAMP inhibition assay, allosteric mode with CPA as orthosteric agonist (DiscoverX HitHunter cAMP XS+), CHO-K1 cells overexpressing the human A1 receptor; operational allosteric ternary complex model; assay type: cell-based; settings: for αβ / τB: antilogarithm; for Kb: antilogarithm of logKB; for Kd: operational model fit, read-out: logKB (converted)
T2 construct: host or cells: CHO-K1
T2 sequence (P30542 1-326): T1 sequence (P30542 1-326)
Method: Experiments with CPA as an agonist: In experiments with CPA as an agonist, inhibition of intracellular cAMP production in response to CPA stimulation of the receptor was determined using a functional assay in CHO-K1 cells overexpressing the human A1 receptor (Eurofins DiscoverX Corporation, Fremont, CA, USA). Cells were seeded in a total volume of 20 μL into white-walled, 384-well microplates and incubated at 37 °C for the appropriate time prior to testing.
Experiments with CPA as an agonist: cAMP production was measured using the DiscoverX HitHunter cAMP XS+ assay (Eurofins DiscoverX Corporation, Fremont, CA, USA). For allosteric modulation studies, cells were pre-incubated with allosteric modulators at various concentrations, followed by induction with the agonist CPA at its EC20 concentration (i.e., the concentration eliciting 20% of the maximal response). Media were aspirated from cells and replaced with 10 μL of HBSS (10 mM HEPES). Sample stocks were diluted to prepare a 4-fold higher (4x) concentration than the final in-well concentration. Next, 5 μL of the 4x compound was added to the cells and incubated at room temperature or 37 °C for 10 min. This was followed by the addition of 5 μL of the 4x EC20 agonist solution and further incubation for 30 min at 37 °C. To stimulate intracellular cAMP production and provide a dynamic range for detecting Gi-mediated inhibition, forskolin at its EC80 was included in all experiments. The final DMSO (vehicle) concentration was 1%. After incubation with compounds, the assay signal was generated by adding 5 uL of and cAMP XS+ Ab reagent followed by 20 μL of the cAMP XS+ ED/CL lysis cocktail and then incubating for 1 h. This was followed by adding 20 μL of the cAMP XS+ EA reagent and incubating for 2 h at room temperature. Chemiluminescent signals were detected using a PerkinElmer EnVision™ instrument. Compound activity was analyzed using the CBIS data analysis suite (ChemInnovation, San Diego, CA, USA). Control dose–response curves were generated using CPA as the agonist. Data were normalized to the maximal response observed with CPA (positive control) and the minimal response observed with vehicle (1% DMSO, negative control).
The operational allosteric ternary complex model (ATCM) accounts for the ability of an allosteric ligand to modify affinity and/or efficacy and even activate a receptor independently. This model describes a simplified case for positive allosteric modulators (PAMs), where the orthosteric ligand is a full agonist.
Explanation of parameters: A = Agonist concentration; B = Allosteric modulator concentration; KB = Dissociation constant for the modulator; αβ = Allosteric coupling constant; τB = Intrinsic activity of the modulator; EC50 = Half-maximal effective concentration of the agonist; n = Hill coefficient; Emax = Maximal system response; Basal = Basal activity (response in the absence of any ligand); Span = Emax − Basal (difference between maximum and basal activity).
The response curve Y is defined as follows: Y=Basal+Span·(Part1)/(Part1+Part2) where Part1=A·KB+αβ·B+τB·B·EC50^n Part2=(EC50^n·(KB+B))^n Span=Emax−Basal

[5] = system: human A1 receptors; design: method as in PMID 30644086; settings: 1, 10 and 30 µM, human A1 receptors in HEK293T cells; cited from earlier work
[6] = system: rat A1 receptors; design: method as in PMID 30644086; settings: 1, 10 and 30 µM, rat A1 receptors in HEK293T cells; cited from earlier work
[7] = design: method as in PMID 19156843; settings: isolated perfused rat livers; cited from earlier work
[8] = design: method as in PMID 22411722; settings: rats; cited from earlier work
[9] = design: method as in PMID 16220575; settings: human, oral 600 mg valerian extract; cited from earlier work

SMILES: COc1cc([C@H]2OC[C@]3(O)[C@@H](c4ccc(O)c(OC)c4)OC[C@H]23)ccc1O [8-Hydroxypinoresinol, 8-Hydroxy-pinoresinol]
Allosteric modulation of adenosine-induced cAMP inhibition (shift of concentration-response curve) [1]: no significant shift

SMILES: O=C(/C=C/c1ccc(O)c(O)c1)O[C@@H]1C[C@](O)(C(=O)O)C[C@@H](O)[C@H]1O [Chlorogenic acid, chlorogenic acid]
Allosteric modulation of adenosine-induced cAMP inhibition (shift of concentration-response curve) [1]: no significant shift

SMILES: CC(=O)O[C@@H]1CC(C)=C2[C@H]1[C@H](C)CC[C@H]2/C=C(\C)C(=O)O [acetoxyvalerenic acid]
permeation of the BBB model relative to diazepam [2]: significantly slower than diazepam

SMILES: COc1cc([C@H]2OC[C@H]3[C@@H]2CO[C@@H]3c2ccc(O[C@@H]3O[C@H](CO)[C@@H](O)[C@H](O)[C@H]3O)c(OC)c2)ccc1O[C@@H]1O[C@H](CO)[C@@H](O)[C@H](O)[C@H]1O [Pinoresinol diglucoside, pinoresinol-diglucoside]
Allosteric modulation of adenosine-induced cAMP inhibition (shift of concentration-response curve) [1]: no significant shift

SMILES: COc1ccc([C@@H]2CC(=O)c3c(O)cc(O[C@@H]4O[C@H](CO[C@@H]5O[C@@H](C)[C@H](O)[C@@H](O)[C@H]5O)[C@@H](O)[C@H](O)[C@H]4O)cc3O2)cc1O [Hesperidin]
Allosteric modulation of adenosine-induced cAMP inhibition (shift of concentration-response curve) [1]: slight leftward shift in the dose-response curve

SMILES: O=C(O)/C=C/c1ccc(O)cc1 [Coumaric acid, coumaric acid]
Allosteric modulation of adenosine-induced cAMP inhibition (shift of concentration-response curve) [1]: no significant shift

SMILES: COc1cc([C@H]2OC[C@H]3[C@@H]2CO[C@@H]3c2ccc(O[C@@H]3O[C@H](CO)[C@@H](O)[C@H](O)[C@H]3O)c(OC)c2)ccc1O [Pinoresinol-4-O-glucoside, pinoresinol-4-O-Glucoside]
Allosteric modulation of adenosine-induced cAMP inhibition (shift of concentration-response curve) [1]: no significant shift

SMILES: CC1=C2[C@@H]([C@H](C)CC[C@H]2/C=C(\C)C(=O)O)[C@H](O)C1 [hydroxyvalerenic acid]
permeation of the BBB model relative to diazepam [2]: significantly slower than diazepam

Now from value to compound, other results behind:

Allosteric modulation of adenosine-induced cAMP inhibition (shift of concentration-response curve) [1]: no significant shift
SMILES: COc1cc([C@H]2OC[C@](O)(Cc3ccc(O[C@@H]4O[C@H](CO)[C@@H](O)[C@H](O)[C@H]4O)c(OC)c3)[C@@H]2CO)ccc1O [Olivil-4-O-glucoside, (−)-olivil 4′-O-glucoside]

Allosteric modulation of adenosine-induced cAMP inhibition (shift of concentration-response curve) [1]: no significant shift
SMILES: COc1cc(/C=C/C(=O)O)ccc1O [Ferulic acid, trans-ferulic acid]

Allosteric modulation of adenosine-induced cAMP inhibition (shift of concentration-response curve) [1]: no significant shift
SMILES: COc1cc(C[C@]2(O)CO[C@@H](c3ccc(O)c(OC)c3)[C@@H]2CO)ccc1O [Olivil, (−)-olivil]

Intrinsic agonist activity: effect on forskolin-stimulated cAMP levels in the absence of adenosine [3]: no significant reduction in cAMP levels
Logαβ (binding and activation cooperativity) [4]: −0.1
LogτB (operational efficacy as allosteric agonist) [4]: 0.22
αβ [4]: 0.79
τB [4]: 1.66
Kb [4]: 316 µM
Kd [4]: 316 µM
Logαβ (binding and activation cooperativity) [1]: 0.53
αβ [1]: 3.42
τB [1]: 0.93
Kb [1]: 25.8 µM
Kd [1]: 26.3 µM
SMILES: COc1cc([C@H]2OC[C@H]3[C@@H]2CO[C@@H]3c2ccc(O)c(OC)c2)ccc1O [Pinoresinol, (+)-pinoresinol]

Logαβ (binding and activation cooperativity) [4]: 1.11
LogτB (operational efficacy as allosteric agonist) [4]: 0.3
αβ [4]: 12.73
τB [4]: 1.99
Kb [4]: 10.8 µM
Kd [4]: 11 µM
Logαβ (binding and activation cooperativity) [1]: −0.43
LogτB (operational efficacy as allosteric agonist) [1]: 0.42
αβ [1]: 0.37
τB [1]: 2.66
Kb [1]: 9.38 µM
Kd [1]: 9.55 µM
SMILES: Nc1scc(-c2cccc(C(F)(F)F)c2)c1C(=O)c1ccccc1 [VCP 171, reference compound]
effect on binding affinity of orthosteric agonists [5]: enhanced the binding affinity of orthosteric agonists
effect on binding affinity of orthosteric agonists [6]: enhanced the binding affinity of orthosteric agonists

Allosteric modulation of adenosine-induced cAMP inhibition (shift of concentration-response curve) [1]: no significant shift
SMILES: COc1ccc(/C=C/C(=O)O)cc1O [Isoferulic acid, trans-isoferulic acid]

Intrinsic agonist activity: effect on forskolin-stimulated cAMP levels in the absence of adenosine [3]: no significant reduction in cAMP levels
Logαβ (binding and activation cooperativity) [4]: 1.36
LogτB (operational efficacy as allosteric agonist) [4]: 0.49
αβ [4]: 23.38
τB [4]: 3.14
Kb [4]: 17.4 µM
Logαβ (binding and activation cooperativity) [1]: 0.68
LogτB (operational efficacy as allosteric agonist) [1]: 0.77
αβ [1]: 4.79
τB [1]: 5.98
Kb [1]: 244 µM
SMILES: CC1=C2[C@H](/C=C(\C)C(=O)O)CC[C@@H](C)[C@H]2CC1 [Valerenic Acid, Valerenic acid]
permeation of the BBB model relative to diazepam [2]: significantly slower than diazepam
hepatic metabolism [7]: undergoes extensive hepatic metabolism, primarily through glucuronidation
oral bioavailability [8]: 33.7%
half-life [9]: approximately 1.1 h
peak plasma concentration of valerenic acid (molar) [9]: ~ 10 nM
